{"source": "paper PMC7377239", "about": "“Cardiovascular Effects of Polychlorinated Biphenyls and Their Major Metabolites” (Environmental Health Perspectives, 2020)", "key": {"[1]": {"system": "HUVECs", "assay": "High-content imaging cytotoxicity in HUVECs, 24 h", "type": "cell-based, human", "conditions": "Homo sapiens, HUVEC, 24 h, HUVECs; for viability at 0.01 µM / activity at 0.01 µM / viability at 0.1 µM / activity at 0.1 µM / viability at 1 µM / activity at 1 µM / viability at 10 µM / activity at 10 µM / viability at 100 µM / activity at 100 µM: 0.00 µM = 100.00; for viability at 0.1 µM / activity at 0.1 µM: 0.10 µM; for minimal effective concentration: top concentration 100.00 µM", "outline": "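HUVECs (passages 1–5) grown to monolayer over 3–5 d, then exposed 24 h at 37°C, 5% CO2; stained with Hoechst 33342, MitoTracker Orange and calcein AM and imaged at 10×. Readouts normalized to 0.5% DMSO vehicle, four-parameter logistic fit; POD at one-SD cutoff, 100μM assigned when no response.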"}, "[2]": {"system": "iCell endothelial cells (human iPSC-derived ECs)", "assay": "Tube formation (tubulogenesis) assay in iCell endothelial cells, 18 h", "type": "cell-based", "conditions": "Homo sapiens, Endothelial cell, iPSC-EC tube formation, 18 hr; for activity at 0.1 µM: 0.10 µM; for minimal effective concentration: top concentration 100.00 µM", "outline": "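iCell ECs (passages 1–5) seeded 7,500 cells/well on reduced-growth-factor Geltrex in starvation medium, exposed overnight at 37°C to compounds in triplicate concentration–response (0.5% DMSO vehicle). Calcein AM staining, 4× imaging, angiogenesis image analysis; readouts normalized to vehicle, four-parameter logistic fit, POD at 1 SD of vehicle; 100 μM assigned NOAEL if no response.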"}, "[3]": {"conditions": "24 hr, read-out: huvec.cyto.24hr"}, "[4]": {"conditions": "24 hr, read-out: huvec.mito.24hr"}, "[5]": {"conditions": "24 hr, read-out: huvec.mitoint.24hr"}, "[6]": {"conditions": "24 hr, read-out: huvec.nma.24hr"}, "[7]": {"conditions": "24 hrs, read-out: huvec.tc.24hrs"}, "[8]": {"conditions": "0.00 µM control = 100.00, read-out: endo.mtl.18hr"}, "[9]": {"conditions": "0.00 µM control = 100.00, read-out: endo.tlps.18hr"}, "[10]": {"conditions": "0.00 µM control = 100.00, read-out: endo.tta.18hr"}, "[11]": {"conditions": "0.00 µM control = 100.00, read-out: endo.ttl.18hr"}}, "note": "Counter-ions that a name gives are not always drawn. Like-named read-outs stand apart in the source and are kept apart here."}
{"smiles": "O=S(=O)(O)Oc1ccc(-c2ccc(Cl)cc2)cc1", "note": "[4'-yl PCB 3 sulfate]", "values": [{"measurement": "viability at 0.01 µM", "setting": "[1]; [3]", "value": 98.5, "unit": "%"}, {"measurement": "activity at 0.01 µM", "setting": "[1]; [4]", "value": 97.5, "unit": "%"}, {"measurement": "activity at 0.01 µM", "setting": "[1]; [5]", "value": 90.2, "unit": "%"}, {"measurement": "activity at 0.01 µM", "setting": "[1]; [6]", "value": 99, "unit": "%"}, {"measurement": "viability at 0.1 µM", "setting": "[1]; [3]", "value": 90.8, "unit": "%"}, {"measurement": "activity at 0.1 µM", "setting": "[1]; [4]", "value": 89.7, "unit": "%"}, {"measurement": "activity at 0.1 µM", "setting": "[1]; [5]", "value": 109, "unit": "%"}, {"measurement": "activity at 0.1 µM", "setting": "[1]; [6]", "value": 102, "unit": "%"}, {"measurement": "viability at 1 µM", "setting": "[1]; [3]", "value": 87.4, "unit": "%"}, {"measurement": "activity at 1 µM", "setting": "[1]; [4]", "value": 86.3, "unit": "%"}, {"measurement": "activity at 1 µM", "setting": "[1]; [5]", "value": 97.9, "unit": "%"}, {"measurement": "activity at 1 µM", "setting": "[1]; [6]", "value": 100, "unit": "%"}, {"measurement": "viability at 10 µM", "setting": "[1]; [3]", "value": 103, "unit": "%"}, {"measurement": "activity at 10 µM", "setting": "[1]; [4]", "value": 103, "unit": "%"}, {"measurement": "activity at 10 µM", "setting": "[1]; [5]", "value": 83.8, "unit": "%"}, {"measurement": "activity at 10 µM", "setting": "[1]; [6]", "value": 97.1, "unit": "%"}, {"measurement": "viability at 100 µM", "setting": "[1]; [3]", "value": 88.9, "unit": "%"}, {"measurement": "activity at 100 µM", "setting": "[1]; [4]", "value": 87.6, "unit": "%"}, {"measurement": "activity at 100 µM", "setting": "[1]; [5]", "value": 114, "unit": "%"}, {"measurement": "activity at 100 µM", "setting": "[1]; [6]", "value": 97.7, "unit": "%"}, {"measurement": "minimal effective concentration", "setting": "[1]; 24 hr, read-out: huvec.cyto.24hr POD", "value": 100, "unit": "µM"}, {"measurement": "minimal effective concentration", "setting": "[1]; 24 hr, read-out: huvec.mito.24hr POD", "value": 100, "unit": "µM"}, {"measurement": "minimal effective concentration", "setting": "[1]; 24 hr, read-out: huvec.mitoint.24hr POD", "value": 100, "unit": "µM"}, {"measurement": "minimal effective concentration", "setting": "[1]; 24 hr, read-out: huvec.nma.24hr POD", "value": 100, "unit": "µM"}, {"measurement": "viability at 0.01 µM", "setting": "[1]; [7]", "value": 98.5, "unit": "%"}, {"measurement": "viability at 0.1 µM", "setting": "[1]; [7]", "value": 90.8, "unit": "%"}, {"measurement": "viability at 1 µM", "setting": "[1]; [7]", "value": 87.4, "unit": "%"}, {"measurement": "viability at 10 µM", "setting": "[1]; [7]", "value": 103, "unit": "%"}, {"measurement": "viability at 100 µM", "setting": "[1]; [7]", "value": 88.9, "unit": "%"}, {"measurement": "minimal effective concentration", "setting": "[1]; 24 hrs, read-out: huvec.tc.24hrs POD", "value": 100, "unit": "µM"}, {"measurement": "activity at 0.01 µM", "setting": "[2]; [8]", "value": 99.2, "unit": "%"}, {"measurement": "activity at 0.01 µM", "setting": "[2]; [9]", "value": 113, "unit": "%"}, {"measurement": "activity at 0.01 µM", "setting": "[2]; [10]", "value": 157, "unit": "%"}, {"measurement": "activity at 0.01 µM", "setting": "[2]; [11]", "value": 149, "unit": "%"}, {"measurement": "activity at 0.1 µM", "setting": "[2]; [8]", "value": 105, "unit": "%"}, {"measurement": "activity at 0.1 µM", "setting": "[2]; [9]", "value": 129, "unit": "%"}, {"measurement": "activity at 0.1 µM", "setting": "[2]; [10]", "value": 138, "unit": "%"}, {"measurement": "activity at 0.1 µM", "setting": "[2]; [11]", "value": 134, "unit": "%"}, {"measurement": "activity at 1 µM", "setting": "[2]; [8]", "value": 98.2, "unit": "%"}, {"measurement": "activity at 1 µM", "setting": "[2]; [9]", "value": 137, "unit": "%"}, {"measurement": "activity at 1 µM", "setting": "[2]; [10]", "value": 128, "unit": "%"}, {"measurement": "activity at 1 µM", "setting": "[2]; [11]", "value": 120, "unit": "%"}, {"measurement": "activity at 10 µM", "setting": "[2]; [8]", "value": 74.7, "unit": "%"}, {"measurement": "activity at 10 µM", "setting": "[2]; [9]", "value": 85.4, "unit": "%"}, {"measurement": "activity at 10 µM", "setting": "[2]; [10]", "value": 81.2, "unit": "%"}, {"measurement": "activity at 10 µM", "setting": "[2]; [11]", "value": 76.8, "unit": "%"}, {"measurement": "activity at 100 µM", "setting": "[2]; [8]", "value": 60.3, "unit": "%"}, {"measurement": "activity at 100 µM", "setting": "[2]; [9]", "value": 28, "unit": "%"}, {"measurement": "activity at 100 µM", "setting": "[2]; [10]", "value": 41.8, "unit": "%"}, {"measurement": "activity at 100 µM", "setting": "[2]; [11]", "value": 44.3, "unit": "%"}, {"measurement": "minimal effective concentration", "setting": "[2]; read-out: endo.mtl.18hr POD", "value": 4.33, "unit": "µM"}, {"measurement": "minimal effective concentration", "setting": "[2]; read-out: endo.tlps.18hr POD", "value": 11.7, "unit": "µM"}, {"measurement": "minimal effective concentration", "setting": "[2]; read-out: endo.tta.18hr POD", "value": 16.8, "unit": "µM"}, {"measurement": "minimal effective concentration", "setting": "[2]; read-out: endo.ttl.18hr POD", "value": 11, "unit": "µM"}]}
